Drawing on US9376425B2, “Heterocyclic compounds as MDM2 inhibitors for the treatment of cancer” (AMGEN INC., priority 2011, dated 2016), this text covers IC50 for 11 compounds.

SMILES strings stand for the structures.

The target in this experiment is T1, human MDM2 (GST-hMDM2 1-188), interaction with biotinylated-p53 (1-83) (Homo sapiens, UniProt Q00987).
T1 construct: Amino acid residues 1-188 of human MDM2 were expressed; made in house; host or cells: Escherichia coli
T1 sequence (Q00987 1-188): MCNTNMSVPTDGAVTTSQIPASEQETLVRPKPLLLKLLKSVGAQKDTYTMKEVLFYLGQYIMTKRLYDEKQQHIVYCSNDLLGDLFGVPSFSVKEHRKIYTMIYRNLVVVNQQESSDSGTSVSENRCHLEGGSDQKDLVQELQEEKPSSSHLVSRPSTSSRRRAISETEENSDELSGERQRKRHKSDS
The experiment can be described thus: improved HTRF assay (HTRF2 assay), inhibition of HDM2-p53 interaction. The experiment is classed as binding. The note with it: 0.2 nM GST-hMDM2, 0.5 nM biotinylated-p53, 100 mM KF. The method in brief: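 GST-hMDM2 preincubated 20 min at RT with serially diluted compound, then biotinylated p53 (1-83, E. coli) added for 60 min. Detection with SA-XLent, anti-GST cryptate and KF, equilibrated >4 h; final DMSO 2%. TR-FRET read; % inhibition calculated relative to nutlin-3.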
(In general: Time-resolved FRET reads energy transfer from a long-lived donor to a nearby acceptor.)
The IC50 is the concentration that inhibits the measured activity by half. `CC(C)[C@@H](CN(c1ccccc1F)S(=O)(=O)C(C)C)N1C(=O)[C@@H](CC(=O)O)O[C@H](c2cccc(Cl)c2)[C@H]1c1ccc(Cl)cc1` (single isomer, unassigned) [Example 199, 2-((2R,5R,6R)-6-(3-chlorophenyl)-5-(4-chlorophenyl)-4-((S)-1-(N-(2-fluorophenyl)propan-2-ylsulfonamido)-3-methylbutan-2-yl)-3-oxomorpholin-2-yl)acetic acid or 2-((2S,5R,6R)-6-(3-chlorophenyl)-5-(4-chlorophenyl)-4-((S)-1-(N-(2-fluorophenyl)propan-2-ylsulfonamido)-3-methylbutan-2-yl)-3-oxomorpholin-2-yl)acetic acid]: the half-inhibitory concentration (IC50) is 1 nM.

Compound `CC(C)[C@@H](CN(c1ccccc1F)S(=O)(=O)C(C)(C)C)N1C(=O)[C@@H](CC(=O)O)O[C@H](c2cccc(Cl)c2)[C@H]1c1ccc(Cl)cc1` (single isomer, unassigned) [Example 200, 2-((2R,5R,6R)-6-(3-chlorophenyl)-5-(4-chlorophenyl)-4-((S)-1-(N-(2-fluorophenyl)-2-methylpropan-2-ylsulfonamido)-3-methylbutan-2-yl)-3-oxomorpholin-2-yl)acetic acid or 2-((2S,5R,6R)-6-(3-chlorophenyl)-5-(4-chlorophenyl)-4-((S)-1-(N-(2-fluorophenyl)-2-methylpropan-2-ylsulfonamido)-3-methylbutan-2-yl)-3-oxomorpholin-2-yl)acetic acid] had an IC50 of 1 nM. For the compound `CC(C)[C@@H](CN(c1ccccc1F)S(=O)(=O)C(C)(C)C)N1C(=O)[C@@H](CC(=O)O)O[C@H](c2cccc(Cl)c2)[C@H]1c1ccc(Cl)cc1` (single isomer, unassigned) [Example 201, 2-((2R,5R,6R)-6-(3-chlorophenyl)-5-(4-chlorophenyl)-4-((S)-1-(N-(2-fluorophenyl)-2-methylpropan-2-ylsulfonamido)-3-methylbutan-2-yl)-3-oxomorpholin-2-yl)acetic acid or 2-((2S,5R,6R)-6-(3-chlorophenyl)-5-(4-chlorophenyl)-4-((S)-1-(N-(2-fluorophenyl)-2-methylpropan-2-ylsulfonamido)-3-methylbutan-2-yl)-3-oxomorpholin-2-yl)acetic acid], the concentration for half-maximal inhibition (IC50) was found to be 2 nM. The compound `CC[C@@H](CS(=O)(=O)c1ccccn1)N1C(=O)[C@@H](CC(=O)O)O[C@H](c2cccc(Cl)c2)[C@H]1c1ccc(Cl)cc1` (single isomer, unassigned) [Example 202, 2-((2R,5R,6R)-6-(3-chlorophenyl)-5-(4-chlorophenyl)-3-oxo-4-((S)-1-(pyridin-2-ylsulfonyl)butan-2-yl)morpholin-2-yl)acetic acid or 2-((2S,5R,6R)-6-(3-chlorophenyl)-5-(4-chlorophenyl)-3-oxo-4-((S)-1-(pyridin-2-ylsulfonyl)butan-2-yl)morpholin-2-yl)acetic acid] had an IC50 of 4 nM. As for `CC[C@@H](CS(=O)(=O)c1ccccn1)N1C(=O)[C@@H](CC(=O)O)O[C@H](c2cccc(Cl)c2)[C@H]1c1ccc(Cl)cc1` (single isomer, unassigned) [Example 203, 2-((2R,5R,6R)-6-(3-chlorophenyl)-5-(4-chlorophenyl)-3-oxo-4-((S)-1-(pyridin-2-ylsulfonyl)butan-2-yl)morpholin-2-yl)acetic acid or 2-((2S,5R,6R)-6-(3-chlorophenyl)-5-(4-chlorophenyl)-3-oxo-4-((S)-1-(pyridin-2-ylsulfonyl)butan-2-yl)morpholin-2-yl)acetic acid], the figure is 20 nM; as for `CC[C@@H](CS(=O)(=O)N1CCC[C@@H]1C)N1C(=O)[C@@H](CC(=O)O)O[C@H](c2cccc(Cl)c2)[C@H]1c1ccc(Cl)cc1` (single isomer, unassigned) [Example 208, 2-((2R,5R,6R)-6-(3-chlorophenyl)-5-(4-chlorophenyl)-4-((S)-1-(((S)-2-methylpyrrolidin-1-yl)sulfonyl)butan-2-yl)-3-oxomorpholin-2-yl)acetic acid or 2-((2S,5R,6R)-6-(3-chlorophenyl)-5-(4-chlorophenyl)-4-((S)-1-(((S)-2-methylpyrrolidin-1-yl)sulfonyl)butan-2-yl)-3-oxomorpholin-2-yl)acetic acid], 2 nM.

Regarding `CC[C@@H](CS(=O)(=O)N1CCC[C@@H]1C)N1C(=O)[C@@H](CC(=O)O)O[C@H](c2cccc(Cl)c2)[C@H]1c1ccc(Cl)cc1` (single isomer, unassigned) [Example 209, 2-((2R,5R,6R)-6-(3-chlorophenyl)-5-(4-chlorophenyl)-4-((S)-1-(((S)-2-methylpyrrolidin-1-yl)sulfonyl)butan-2-yl)-3-oxomorpholin-2-yl)acetic acid or 2-((2S,5R,6R)-6-(3-chlorophenyl)-5-(4-chlorophenyl)-4-((S)-1-(((S)-2-methylpyrrolidin-1-yl)sulfonyl)butan-2-yl)-3-oxomorpholin-2-yl)acetic acid], half-maximal inhibition (IC50) required 7 nM.

`CC[C@@H](CS(=O)(=O)N1CCC[C@H]1C)N1C(=O)[C@@H](CC(=O)O)O[C@H](c2cccc(Cl)c2)[C@H]1c1ccc(Cl)cc1` (single isomer, unassigned) [Example 210, 2-((2R,5R,6R)-6-(3-chlorophenyl)-5-(4-chlorophenyl)-4-((S)-1-(((R)-2-methylpyrrolidin-1-yl)sulfonyl)butan-2-yl)-3-oxomorpholin-2-yl)acetic acid or 2-((2S,5R,6R)-6-(3-chlorophenyl)-5-(4-chlorophenyl)-4-((S)-1-(((R)-2-methylpyrrolidin-1-yl)sulfonyl)butan-2-yl)-3-oxomorpholin-2-yl)acetic acid]: the 50% inhibitory concentration (IC50) is 1 nM. As for `CC[C@@H](CS(=O)(=O)N1CCC[C@H]1C)N1C(=O)[C@@H](CC(=O)O)O[C@H](c2cccc(Cl)c2)[C@H]1c1ccc(Cl)cc1` (single isomer, unassigned) [Example 211, 2-((2R,5R,6R)-6-(3-chlorophenyl)-5-(4-chlorophenyl)-4-((S)-1-(((R)-2-methylpyrrolidin-1-yl)sulfonyl)butan-2-yl)-3-oxomorpholin-2-yl)acetic acid or 2-((2S,5R,6R)-6-(3-chlorophenyl)-5-(4-chlorophenyl)-4-((S)-1-(((R)-2-methylpyrrolidin-1-yl)sulfonyl)butan-2-yl)-3-oxomorpholin-2-yl)acetic acid], the figure is 4 nM. `CC[C@@H](CS(=O)(=O)C1CC1)N1C(=O)[C@@H](CC(=O)O)O[C@H](c2cccc(Cl)c2)[C@H]1c1ccc(Cl)cc1` (single isomer, unassigned) [Example 212, 2-((2R,5R,6R)-6-(3-chlorophenyl)-5-(4-chlorophenyl)-4-((S)-1-(cyclopropylsulfonyl)butan-2-yl)-3-oxomorpholin-2-yl)acetic acid or 2-((2S,5R,6R)-6-(3-chlorophenyl)-5-(4-chlorophenyl)-4-((S)-1-(cyclopropylsulfonyl)butan-2-yl)-3-oxomorpholin-2-yl)acetic acid]: the midpoint of inhibition, the IC50, lay at 2 nM. As for `CC[C@@H](CS(=O)(=O)C1CC1)N1C(=O)[C@@H](CC(=O)O)O[C@H](c2cccc(Cl)c2)[C@H]1c1ccc(Cl)cc1` (single isomer, unassigned) [Example 213, 2-((2R,5R,6R)-6-(3-chlorophenyl)-5-(4-chlorophenyl)-4-((S)-1-(cyclopropylsulfonyl)butan-2-yl)-3-oxomorpholin-2-yl)acetic acid or 2-((2S,5R,6R)-6-(3-chlorophenyl)-5-(4-chlorophenyl)-4-((S)-1-(cyclopropylsulfonyl)butan-2-yl)-3-oxomorpholin-2-yl)acetic acid], the figure is 5 nM.
